{
  "source": "ChEMBL document CHEMBL1201862",
  "about": "“PubChem BioAssay data set” (2004)",
  "key": {"[1]": {"target": "Induced myeloid leukemia cell differentiation protein Mcl-1 (Homo sapiens, UniProt Q07820)", "sequence (Q07820 whole entry)": "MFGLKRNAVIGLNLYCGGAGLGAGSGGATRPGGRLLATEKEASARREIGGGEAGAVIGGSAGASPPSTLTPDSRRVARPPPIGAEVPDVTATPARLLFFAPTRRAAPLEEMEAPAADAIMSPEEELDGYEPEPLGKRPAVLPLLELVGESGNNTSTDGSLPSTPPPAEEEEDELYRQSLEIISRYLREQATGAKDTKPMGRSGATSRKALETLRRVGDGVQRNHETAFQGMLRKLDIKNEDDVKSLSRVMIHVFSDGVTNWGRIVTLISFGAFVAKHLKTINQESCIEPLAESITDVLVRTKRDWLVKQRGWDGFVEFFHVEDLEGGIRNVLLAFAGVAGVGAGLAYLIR", "assay": "MCL1-BIM BH3 interaction inhibitors, dose response, biochemical, fluorescence polarization, BIM-BH3 peptide, 1536-well (AID 2217)"}, "Bcl-2-like protein 1": {"target": "Bcl-2-like protein 1 (Homo sapiens, UniProt Q07817)", "sequence (Q07817 whole entry)": "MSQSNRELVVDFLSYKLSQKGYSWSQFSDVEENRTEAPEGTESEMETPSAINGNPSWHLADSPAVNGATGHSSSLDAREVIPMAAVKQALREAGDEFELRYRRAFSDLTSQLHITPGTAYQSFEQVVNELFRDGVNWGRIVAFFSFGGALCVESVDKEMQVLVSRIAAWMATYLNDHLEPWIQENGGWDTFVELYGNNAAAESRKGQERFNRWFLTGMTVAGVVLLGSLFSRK", "assay": "BCL-XL inhibitors, dose response, selectivity assay for MCL1 inhibitor project, biochemical, fluorescence polarization, 1536-well (AID 2218)"}, "[2]": {"target": "Intestinal-type alkaline phosphatase (Homo sapiens, UniProt P09923)", "sequence (P09923 whole entry)": "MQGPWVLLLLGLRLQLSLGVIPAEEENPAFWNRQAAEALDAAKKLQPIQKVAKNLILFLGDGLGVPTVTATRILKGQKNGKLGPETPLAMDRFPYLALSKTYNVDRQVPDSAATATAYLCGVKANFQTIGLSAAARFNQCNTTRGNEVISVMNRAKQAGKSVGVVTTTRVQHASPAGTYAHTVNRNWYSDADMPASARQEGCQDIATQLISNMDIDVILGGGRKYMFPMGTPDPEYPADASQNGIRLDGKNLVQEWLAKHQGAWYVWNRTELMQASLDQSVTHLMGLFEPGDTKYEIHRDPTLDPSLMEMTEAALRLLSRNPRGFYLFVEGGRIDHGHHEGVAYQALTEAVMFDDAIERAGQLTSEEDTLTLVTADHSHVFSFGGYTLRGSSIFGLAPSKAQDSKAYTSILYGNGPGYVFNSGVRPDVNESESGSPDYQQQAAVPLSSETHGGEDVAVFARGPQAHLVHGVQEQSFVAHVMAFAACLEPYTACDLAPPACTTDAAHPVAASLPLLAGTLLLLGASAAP", "assay": "inhibition of human intestinal alkaline phosphatase – biochemical, dose response (AID 488876)", "format": "functional"}, "[3]": {"target": "T1, Alkaline phosphatase, tissue-nonspecific isozyme (Homo sapiens, UniProt P05186)", "T1 sequence (P05186 whole entry)": "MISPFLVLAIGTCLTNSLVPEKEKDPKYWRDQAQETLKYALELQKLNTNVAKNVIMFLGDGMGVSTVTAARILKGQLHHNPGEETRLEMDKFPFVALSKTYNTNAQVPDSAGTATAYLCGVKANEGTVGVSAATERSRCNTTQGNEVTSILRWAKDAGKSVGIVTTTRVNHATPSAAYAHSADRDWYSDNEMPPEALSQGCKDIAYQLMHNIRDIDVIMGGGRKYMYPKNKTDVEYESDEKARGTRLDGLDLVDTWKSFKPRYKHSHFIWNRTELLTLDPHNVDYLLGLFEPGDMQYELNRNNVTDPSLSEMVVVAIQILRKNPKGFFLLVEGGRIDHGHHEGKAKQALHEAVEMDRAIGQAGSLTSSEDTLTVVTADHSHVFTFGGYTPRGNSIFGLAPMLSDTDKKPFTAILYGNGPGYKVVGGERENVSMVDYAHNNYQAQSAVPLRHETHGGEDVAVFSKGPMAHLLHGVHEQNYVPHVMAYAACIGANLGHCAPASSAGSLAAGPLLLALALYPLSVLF", "assay": "TNAP enzyme inhibition by screening hits, dose response, selectivity assay for mouse IAP inhibitor project, biochemical, human TNAP, uHTS hits (AID 488906)", "format": "functional"}, "[4]": {"target": "Intestinal-type alkaline phosphatase (Mus musculus, UniProt P24822)", "sequence (P24822 whole entry)": "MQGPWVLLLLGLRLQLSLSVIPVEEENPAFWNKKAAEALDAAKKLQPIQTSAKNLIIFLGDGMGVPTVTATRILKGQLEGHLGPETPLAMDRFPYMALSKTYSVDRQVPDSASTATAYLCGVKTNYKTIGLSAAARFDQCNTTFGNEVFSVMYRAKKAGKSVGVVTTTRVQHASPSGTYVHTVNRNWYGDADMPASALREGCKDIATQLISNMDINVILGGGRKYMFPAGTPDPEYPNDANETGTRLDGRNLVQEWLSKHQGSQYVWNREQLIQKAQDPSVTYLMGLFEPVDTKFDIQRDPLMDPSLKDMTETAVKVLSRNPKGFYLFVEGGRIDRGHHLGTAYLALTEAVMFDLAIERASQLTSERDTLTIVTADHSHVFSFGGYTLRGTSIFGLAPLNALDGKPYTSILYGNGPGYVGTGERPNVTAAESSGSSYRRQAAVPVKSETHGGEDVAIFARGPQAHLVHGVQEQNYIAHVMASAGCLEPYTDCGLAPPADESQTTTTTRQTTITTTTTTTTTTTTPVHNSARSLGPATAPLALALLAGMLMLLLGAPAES", "assay": "PubChem AID 488785", "format": "functional"}, "[5]": {"target": "Eukaryotic translation initiation factor 4E (Mus musculus, UniProt P63073)", "sequence (P63073 whole entry)": "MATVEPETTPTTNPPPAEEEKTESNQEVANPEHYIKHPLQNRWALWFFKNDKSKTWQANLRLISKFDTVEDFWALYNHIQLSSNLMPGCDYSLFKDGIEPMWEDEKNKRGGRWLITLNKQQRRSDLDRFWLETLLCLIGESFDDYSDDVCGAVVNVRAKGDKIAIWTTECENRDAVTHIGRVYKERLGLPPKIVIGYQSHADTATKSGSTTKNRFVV", "assay": "eIF4E–eIF4G protein interaction inhibitors, dose response, biochemical, TR-FRET (AID 855);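 also: potency for disrupting eIF4E binding to eIF4GI seen as loss of FRET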", "format": "functional"}, "[6]": {"target": "T2, Carboxy-terminal domain RNA polymerase II polypeptide A small phosphatase 1 (Homo sapiens, UniProt Q9GZU7)", "T2 sequence (Q9GZU7 whole entry)": "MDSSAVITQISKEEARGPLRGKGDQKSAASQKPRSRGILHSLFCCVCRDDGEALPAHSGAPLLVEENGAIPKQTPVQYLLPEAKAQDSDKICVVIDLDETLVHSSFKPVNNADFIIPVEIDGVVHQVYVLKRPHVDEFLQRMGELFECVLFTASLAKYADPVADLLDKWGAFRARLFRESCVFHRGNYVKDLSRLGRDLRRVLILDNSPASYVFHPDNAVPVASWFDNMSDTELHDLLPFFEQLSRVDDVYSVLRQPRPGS", "assay": "inhibitors of CTDSP1, concentration-response testing, biochemical assay, absorbance-based, actives from ultra-high-throughput screening (AID 540297)", "format": "functional"}, "Cytochrome P450 2C19": {"target": "Cytochrome P450 2C19 (Homo sapiens, UniProt P33261)", "sequence (P33261 whole entry)": "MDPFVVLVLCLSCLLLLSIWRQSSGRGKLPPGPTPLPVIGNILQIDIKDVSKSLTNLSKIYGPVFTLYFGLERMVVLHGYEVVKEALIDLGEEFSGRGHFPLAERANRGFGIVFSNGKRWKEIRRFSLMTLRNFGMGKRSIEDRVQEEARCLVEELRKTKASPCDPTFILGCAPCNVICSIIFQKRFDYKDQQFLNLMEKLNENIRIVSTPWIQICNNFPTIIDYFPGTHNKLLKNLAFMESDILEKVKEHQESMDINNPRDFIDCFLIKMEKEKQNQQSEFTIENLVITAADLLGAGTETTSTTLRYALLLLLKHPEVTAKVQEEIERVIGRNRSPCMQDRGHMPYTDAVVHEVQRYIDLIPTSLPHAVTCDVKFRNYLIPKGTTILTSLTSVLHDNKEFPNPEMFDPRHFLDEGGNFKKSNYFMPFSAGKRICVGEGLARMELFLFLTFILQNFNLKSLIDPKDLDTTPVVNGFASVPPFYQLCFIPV", "assay": "Cytochrome panel assay with activity outcomes. Panel member name: p450-cyp2c19 Compounds with AC50 equal or less than 10 uM are considered active", "format": "functional", "conditions": "read-out: AC50"}, "[7]": {"target": "Voltage-gated inwardly rectifying potassium channel KCNH2 (Homo sapiens, UniProt Q12809)", "sequence (Q12809 whole entry)": "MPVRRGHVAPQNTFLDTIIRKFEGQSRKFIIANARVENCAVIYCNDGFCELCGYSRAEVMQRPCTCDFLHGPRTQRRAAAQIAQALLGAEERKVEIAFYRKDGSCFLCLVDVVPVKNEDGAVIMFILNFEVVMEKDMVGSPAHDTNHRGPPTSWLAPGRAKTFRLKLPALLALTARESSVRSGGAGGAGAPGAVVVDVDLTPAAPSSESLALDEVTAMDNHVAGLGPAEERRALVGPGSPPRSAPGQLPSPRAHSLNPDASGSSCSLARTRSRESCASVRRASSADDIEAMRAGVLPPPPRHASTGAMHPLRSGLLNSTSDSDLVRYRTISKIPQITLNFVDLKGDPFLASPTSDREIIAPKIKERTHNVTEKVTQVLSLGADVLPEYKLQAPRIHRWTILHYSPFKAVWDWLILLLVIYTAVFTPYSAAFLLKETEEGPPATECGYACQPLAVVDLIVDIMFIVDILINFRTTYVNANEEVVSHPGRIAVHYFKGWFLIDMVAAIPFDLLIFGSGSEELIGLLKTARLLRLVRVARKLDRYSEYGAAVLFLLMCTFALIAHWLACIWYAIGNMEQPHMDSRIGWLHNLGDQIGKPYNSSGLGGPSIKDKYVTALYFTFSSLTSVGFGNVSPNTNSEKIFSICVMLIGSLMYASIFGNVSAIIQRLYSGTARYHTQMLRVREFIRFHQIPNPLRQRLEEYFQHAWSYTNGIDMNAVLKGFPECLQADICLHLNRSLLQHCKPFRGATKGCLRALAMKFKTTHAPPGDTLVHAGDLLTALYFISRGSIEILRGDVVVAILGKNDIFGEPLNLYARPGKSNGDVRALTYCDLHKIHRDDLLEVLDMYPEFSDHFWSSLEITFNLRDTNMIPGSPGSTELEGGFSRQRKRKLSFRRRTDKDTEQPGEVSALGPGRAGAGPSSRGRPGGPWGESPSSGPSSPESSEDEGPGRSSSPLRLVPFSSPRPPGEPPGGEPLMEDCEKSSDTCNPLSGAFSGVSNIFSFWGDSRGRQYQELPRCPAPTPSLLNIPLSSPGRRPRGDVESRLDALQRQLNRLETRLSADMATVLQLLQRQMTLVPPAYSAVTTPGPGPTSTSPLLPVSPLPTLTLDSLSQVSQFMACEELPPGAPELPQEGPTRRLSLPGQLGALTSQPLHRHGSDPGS", "assay": "hERG protection from proarrhythmic block, potency, dose response, cell-based, thallium flux (AID 2121)", "format": "ADME"}, "Cytochrome P450 2C9": {"target": "Cytochrome P450 2C9 (Homo sapiens, UniProt P11712)", "sequence (P11712 whole entry)": "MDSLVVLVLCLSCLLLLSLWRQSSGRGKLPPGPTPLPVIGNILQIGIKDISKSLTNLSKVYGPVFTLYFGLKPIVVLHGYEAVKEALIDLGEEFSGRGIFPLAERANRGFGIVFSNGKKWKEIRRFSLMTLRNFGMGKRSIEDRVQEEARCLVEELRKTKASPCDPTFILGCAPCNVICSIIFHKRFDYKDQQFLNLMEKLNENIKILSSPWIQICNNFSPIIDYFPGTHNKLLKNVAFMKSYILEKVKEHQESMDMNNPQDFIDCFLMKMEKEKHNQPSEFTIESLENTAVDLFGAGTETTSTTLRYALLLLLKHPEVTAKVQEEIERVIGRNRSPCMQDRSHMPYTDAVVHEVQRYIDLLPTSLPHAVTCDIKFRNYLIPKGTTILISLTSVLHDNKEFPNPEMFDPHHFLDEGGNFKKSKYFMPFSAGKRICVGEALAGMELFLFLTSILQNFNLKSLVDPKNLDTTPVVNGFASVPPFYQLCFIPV"}, "Protein skinhead-1": {"target": "T3, Protein skinhead-1 (Caenorhabditis elegans, UniProt P34707)", "T3 sequence (P34707 whole entry)": "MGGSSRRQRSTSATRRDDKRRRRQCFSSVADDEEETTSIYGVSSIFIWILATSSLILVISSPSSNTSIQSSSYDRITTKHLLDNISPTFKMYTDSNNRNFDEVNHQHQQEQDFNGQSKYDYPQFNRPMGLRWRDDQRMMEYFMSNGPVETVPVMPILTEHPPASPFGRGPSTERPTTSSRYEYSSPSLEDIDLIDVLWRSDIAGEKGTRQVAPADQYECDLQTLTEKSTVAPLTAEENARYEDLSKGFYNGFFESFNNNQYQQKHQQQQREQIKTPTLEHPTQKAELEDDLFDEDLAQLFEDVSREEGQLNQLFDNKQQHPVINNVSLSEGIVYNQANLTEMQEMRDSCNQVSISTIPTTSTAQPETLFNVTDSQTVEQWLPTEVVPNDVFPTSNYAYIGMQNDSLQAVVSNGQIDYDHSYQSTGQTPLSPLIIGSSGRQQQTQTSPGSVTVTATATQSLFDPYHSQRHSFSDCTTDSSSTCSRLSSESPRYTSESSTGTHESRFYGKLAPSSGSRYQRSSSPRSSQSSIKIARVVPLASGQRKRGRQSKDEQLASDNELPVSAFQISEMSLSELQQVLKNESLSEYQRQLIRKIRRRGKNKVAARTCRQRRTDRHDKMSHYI", "format": "functional"}, "Cytochrome P450 3A4": {"target": "Cytochrome P450 3A4 (Homo sapiens, UniProt P08684)", "sequence (P08684 whole entry)": "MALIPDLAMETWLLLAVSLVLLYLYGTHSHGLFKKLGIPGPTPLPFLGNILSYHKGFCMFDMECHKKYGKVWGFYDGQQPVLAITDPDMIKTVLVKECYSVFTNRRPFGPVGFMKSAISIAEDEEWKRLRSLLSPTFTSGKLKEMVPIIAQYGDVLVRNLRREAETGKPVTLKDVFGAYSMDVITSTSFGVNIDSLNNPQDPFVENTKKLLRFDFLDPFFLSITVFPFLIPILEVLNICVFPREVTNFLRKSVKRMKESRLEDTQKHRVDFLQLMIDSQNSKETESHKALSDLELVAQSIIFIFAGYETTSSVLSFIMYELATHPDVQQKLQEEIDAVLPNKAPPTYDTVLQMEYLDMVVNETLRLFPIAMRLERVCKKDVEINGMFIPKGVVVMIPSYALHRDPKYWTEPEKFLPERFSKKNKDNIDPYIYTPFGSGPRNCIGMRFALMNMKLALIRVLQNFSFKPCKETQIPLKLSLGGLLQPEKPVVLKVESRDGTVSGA"}, "[8]": {"target": "T4, Neuropeptide Y receptor type 1 (Homo sapiens, UniProt P25929)", "T4 sequence (P25929 whole entry)": "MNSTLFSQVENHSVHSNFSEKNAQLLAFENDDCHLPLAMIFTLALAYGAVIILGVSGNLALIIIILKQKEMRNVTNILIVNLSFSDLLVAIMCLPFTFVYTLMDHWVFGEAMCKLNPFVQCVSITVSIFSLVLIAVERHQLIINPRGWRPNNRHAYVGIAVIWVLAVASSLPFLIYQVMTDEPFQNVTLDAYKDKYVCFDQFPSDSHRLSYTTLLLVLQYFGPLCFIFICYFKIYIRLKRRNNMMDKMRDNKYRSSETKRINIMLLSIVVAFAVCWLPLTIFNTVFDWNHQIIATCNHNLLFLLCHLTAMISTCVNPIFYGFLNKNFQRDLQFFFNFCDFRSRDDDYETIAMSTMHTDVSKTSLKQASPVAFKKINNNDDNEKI", "assay": "NPY-Y1 receptor antagonist potency, dose response, cell-based (AID 1277)", "format": "functional"}, "[9]": {"target": "T5, Neuropeptide Y receptor type 2 (Homo sapiens, UniProt P49146)", "T5 sequence (P49146 whole entry)": "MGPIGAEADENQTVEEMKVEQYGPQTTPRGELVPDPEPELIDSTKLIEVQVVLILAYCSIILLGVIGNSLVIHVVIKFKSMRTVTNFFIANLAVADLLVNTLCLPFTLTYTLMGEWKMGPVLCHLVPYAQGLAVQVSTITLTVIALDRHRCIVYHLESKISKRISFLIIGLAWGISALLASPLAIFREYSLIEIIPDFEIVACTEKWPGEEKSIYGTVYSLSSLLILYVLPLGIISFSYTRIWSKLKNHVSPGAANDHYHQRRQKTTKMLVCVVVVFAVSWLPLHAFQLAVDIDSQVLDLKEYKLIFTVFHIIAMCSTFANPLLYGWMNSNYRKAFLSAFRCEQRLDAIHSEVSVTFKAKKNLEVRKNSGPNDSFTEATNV", "assay": "NPY-Y2 antagonist potency, selectivity check, dose response, counter-screen for NPY-Y1 antagonist project, cell-based (AID 1278)", "format": "functional"}, "[10]": {"assay": "M. tuberculosis H37Rv growth inhibitors, H37Rv strain (AID 1626)", "format": "functional"}},
  "note": "The source made the active and inactive calls.",
  "data": [
    {"compound": "CCN(C(=O)C(C)N1C(=O)/C(=C/c2ccco2)SC1=S)C1CCS(=O)(=O)C1", "note": "(centres undefined)", "values": [
      {"measurement": "IC50", "setting": "[1]", "result": "> 12.1 µM (not active)"},
      {"measurement": "IC50", "setting": "Bcl-2-like protein 1", "result": "> 109 µM (not active)"},
      {"measurement": "IC50", "setting": "[2]", "result": "3.79 µM (active)"},
      {"measurement": "IC50", "setting": "[3]", "result": "11.1 µM (active)"},
      {"measurement": "IC50", "setting": "[4]", "result": "0.419 µM (active)"}
    ]},
    {"compound": "O=C(/C=C/c1ccco1)N(c1ccccn1)c1ccccn1", "values": [
      {"measurement": "IC50", "setting": "[5]", "result": "50 µM (inactive)"},
      {"measurement": "IC50", "setting": "[1]", "result": "19.8 µM (not active)"},
      {"measurement": "IC50", "setting": "Bcl-2-like protein 1", "result": "> 109 µM (not active)"},
      {"measurement": "IC50", "setting": "[6]", "result": "3.29 µM (active)"}
    ]},
    {"compound": "Cc1ccc(NC(=S)c2nc3ccccc3s2)cc1", "values": [
      {"measurement": "AC50", "setting": "Cytochrome P450 2C19", "result": "0.0251 µM (inconclusive)"},
      {"measurement": "EC50", "setting": "[7]", "result": "0.46 µM (active)"},
      {"measurement": "AC50", "setting": "Cytochrome P450 2C9", "result": "10 µM (inconclusive)"},
      {"measurement": "IC50", "setting": "Protein skinhead-1", "result": "> 100 µM (inactive)"},
      {"measurement": "AC50", "setting": "Cytochrome P450 3A4", "result": "22.4 µM (inconclusive)"}
    ]},
    {"compound": "CC(C)(C)NCc1cc(Br)ccc1OC1CCCC1", "values": [
      {"measurement": "IC50", "setting": "[8]", "result": "7.43 µM (active)"},
      {"measurement": "IC50", "setting": "[9]", "result": "11.2 µM (not active)"}
    ]},
    {"compound": "CCOC(=O)C1(CCCc2ccccc2)CCN(C2CCSCC2)CC1", "values": [
      {"measurement": "IC50", "setting": "[8]", "result": "16.7 µM (not active)"},
      {"measurement": "IC50", "setting": "[9]", "result": "> 35 µM (not active)"}
    ]},
    {"compound": "N#Cc1ccc(/C=C/C(=O)c2ccc3c(c2)OCO3)cc1", "values": [
      {"measurement": "IC50", "setting": "[10]", "result": "> 100 µM (active)"}
    ]}
  ]
}
